PubChem BioAssay AID248 (DTP/NCI, 2004)
Inconclusive results and toxic doses are left out. No stated cut-off is given here; in the data, active means T/C of 150% or more; inactive means T/C below 125%.

Tested on: L1210 leukemia ip in BDF1 mice, survival T/C
Assay: NCI In Vivo Anticancer Drug Screen. Data for tumor model L1210 Leukemia (intraperitoneal) in B6D2F1 (BDF1) mice
Conditions: endpoint: mean survival time, higher = longer survival
Outline: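 Antitumor effect is assessed in tumor-bearing animals. Survival in the compound arm is compared with a vehicle-dosed control arm and expressed as their quotient.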

[1] = dose: 100.0 mg/kg/injection, schedule: Q01DX001 (ip), vehicle: saline
[2] = dose: 200.0 mg/kg/injection, schedule: Q01DX001 (ip), vehicle: saline
[3] = dose: 25.0 mg/kg/injection, schedule: Q04DX003 (ip), vehicle: saline
[4] = dose: 50.0 mg/kg/injection, schedule: Q04DX003 (ip), vehicle: saline
[5] = dose: 100.0 mg/kg/injection, schedule: Q04DX002 (ip), vehicle: Klucel (hydroxypropylcellulose) (HPC)
[6] = dose: 200.0 mg/kg/injection, schedule: Q04DX002 (ip), vehicle: Klucel (hydroxypropylcellulose) (HPC)
[7] = dose: 100.0 mg/kg/injection, schedule: Q01DX009 (ip), vehicle: Klucel (hydroxypropylcellulose) (HPC)
[8] = dose: 200.0 mg/kg/injection, schedule: Q01DX009 (ip), vehicle: Klucel (hydroxypropylcellulose) (HPC)
[9] = dose: 400.0 mg/kg/injection, schedule: Q01DX009 (ip), vehicle: Klucel (hydroxypropylcellulose) (HPC)
[10] = dose: 25.0 mg/kg/injection, schedule: Q01DX009 (ip), vehicle: saline
[11] = dose: 50.0 mg/kg/injection, schedule: Q01DX009 (ip), vehicle: saline
[12] = dose: 100.0 mg/kg/injection, schedule: Q04DX003 (ip), vehicle: saline
[13] = dose: 100.0 mg/kg/injection, schedule: Q04DX003 (ip), vehicle: saline with Tween-80
[14] = dose: 200.0 mg/kg/injection, schedule: Q04DX003 (ip), vehicle: saline with Tween-80
[15] = dose: 400.0 mg/kg/injection, schedule: Q04DX003 (ip), vehicle: saline with Tween-80
[16] = dose: 100.0 mg/kg/injection, schedule: Q04DX003 (ip), vehicle: Klucel (hydroxypropylcellulose) (HPC)
[17] = dose: 200.0 mg/kg/injection, schedule: Q04DX003 (ip), vehicle: Klucel (hydroxypropylcellulose) (HPC)
[18] = dose: 400.0 mg/kg/injection, schedule: Q04DX003 (ip), vehicle: Klucel (hydroxypropylcellulose) (HPC)

Measured: T/C

CCCCCCCCCCCCn1cnc2c(=S)nc[nH]c21
inactive: dose: 12.5 mg/kg/injection, schedule: Q01DX005 (ip), vehicle: other 106 % of control | dose: 25.0 mg/kg/injection, schedule: Q01DX005 (ip), vehicle: other 101 % of control | dose: 50.0 mg/kg/injection, schedule: Q01DX005 (ip), vehicle: other 100 % of control | dose: 100.0 mg/kg/injection, schedule: Q01DX005 (ip), vehicle: other 106 % of control | dose: 200.0 mg/kg/injection, schedule: Q01DX005 (ip), vehicle: other 89 % of control

CC(C)C(C)(O)C(N)=O (configuration not stated)
inactive: [1] 106 % of control | [2] 101 % of control

COC(=O)c1cccc(OC)c1-c1c(OC)cccc1C(=O)OC
inactive: dose: 100.0 mg/kg/injection, schedule: Q01DX001 (ip), vehicle: Klucel (hydroxypropylcellulose) (HPC) 105 % of control | dose: 200.0 mg/kg/injection, schedule: Q01DX001 (ip), vehicle: Klucel (hydroxypropylcellulose) (HPC) 103 % of control | dose: 400.0 mg/kg/injection, schedule: Q01DX001 (ip), vehicle: Klucel (hydroxypropylcellulose) (HPC) 102 % of control

O=C(OCC1CCN2CCCC12)c1ccccc1 (configuration not stated)
inactive: dose: 12.5 mg/kg/injection, schedule: Q04DX003 (ip), vehicle: saline 104 % of control | [3] 110 % of control | [4] 102 % of control

CCSC1(SCC)C2(CCCCC2)C(=O)C12CCCCC2
inactive: [5] 93 % of control | [6] 96 % of control | dose: 400.0 mg/kg/injection, schedule: Q04DX002 (ip), vehicle: Klucel (hydroxypropylcellulose) (HPC) 96 % of control

CCCCOP(=O)(Nc1ccccc1)OCCCC
inactive: dose: 100.0 mg/kg/injection, schedule: Q04DX002 (sc), vehicle: olive oil, sesame oil, peanut oil 103 % of control | dose: 200.0 mg/kg/injection, schedule: Q04DX002 (sc), vehicle: olive oil, sesame oil, peanut oil 103 % of control | dose: 400.0 mg/kg/injection, schedule: Q04DX002 (sc), vehicle: olive oil, sesame oil, peanut oil 90 % of control

C1CCC2(CC1)NN2
inactive: dose: 50.0 mg/kg/injection, schedule: Q01DX001 (ip), vehicle: water 101 % of control | dose: 100.0 mg/kg/injection, schedule: Q01DX001 (ip), vehicle: water 104 % of control | dose: 200.0 mg/kg/injection, schedule: Q01DX001 (ip), vehicle: water 98 % of control | dose: 400.0 mg/kg/injection, schedule: Q01DX001 (ip), vehicle: water 103 % of control

COc1cc(/C=N/NC(=O)c2ccccc2OC)ccc1O
inactive: [7] 97 % of control | [8] 98 % of control | [9] 94 % of control

C=CCC(N)Cc1ccccc1 (configuration not stated)
inactive: dose: 6.25 mg/kg/injection, schedule: Q01DX009 (ip), vehicle: saline 101 % of control | dose: 12.5 mg/kg/injection, schedule: Q01DX009 (ip), vehicle: saline 113 % of control | [10] 101 % of control | [3] 96 % of control | [11] 109 % of control | [4] 105 % of control | [12] 102 % of control

CC(=O)OCC1OCC(OC(C)=O)C(OC(C)=O)C1OC(C)=O (configuration not stated)
inactive: [13] 94 % of control | [14] 98 % of control | [15] 98 % of control

Brc1ccccc1Nn1c2ccccc2c2ccccc21
inactive: [7] 103 % of control | [8] 95 % of control | [9] 103 % of control

Nc1cccc2c1-c1ccccc1C2=O
inactive: dose: 50.0 mg/kg/injection, schedule: Q04DX002 (ip), vehicle: Klucel (hydroxypropylcellulose) (HPC) 103 % of control | [5] 88 % of control | [6] 103 % of control

O=c1[nH]c2ccc([N+](=O)[O-])cc2c2nc3ccccc3n12
inactive: dose: 50.0 mg/kg/injection, schedule: Q01DX009 (ip), vehicle: Klucel (hydroxypropylcellulose) (HPC) 95 % of control | [7] 101 % of control | [8] 95 % of control

COc1ccc(C2CCc3cc4c(cc3/C2=N/O)OCO4)cc1OC (configuration not stated)
inactive: dose: 100.0 mg/kg/injection, schedule: Q01DX009 (ip), vehicle: saline with Tween-80 98 % of control | [13] 90 % of control | dose: 200.0 mg/kg/injection, schedule: Q01DX009 (ip), vehicle: saline with Tween-80 92 % of control | [14] 90 % of control | dose: 400.0 mg/kg/injection, schedule: Q01DX009 (ip), vehicle: saline with Tween-80 105 % of control | [15] 91 % of control

CC(=O)Oc1ccccc1C(C)=O
inactive: [7] 97 % of control | [16] 96 % of control | [8] 97 % of control | [17] 98 % of control | [18] 104 % of control

O=c1[nH][nH]c(Cc2ccccc2)c1-c1ccccc1
inactive: [16] 102 % of control | [17] 98 % of control | [18] 101 % of control

CCC[As](=O)(O)CCC
inactive: [10] 107 % of control | [11] 112 % of control | [12] 111 % of control

CCCCCCCCCCCCC(O)C(O)CCCCCCCC(=O)O (configuration not stated)
inactive: [7] 94 % of control | [8] 93 % of control | [9] 93 % of control

Cc1ccc(C(=O)c2sc(Nc3cccc(C(F)(F)F)c3)c(C#N)c2N)c(C)c1
inactive: dose: 100.0 mg/kg/injection, schedule: Q04DX002 (ip), vehicle: saline with Tween-80 95 % of control | dose: 200.0 mg/kg/injection, schedule: Q04DX002 (ip), vehicle: saline with Tween-80 87 % of control | dose: 400.0 mg/kg/injection, schedule: Q04DX002 (ip), vehicle: saline with Tween-80 91 % of control

C/C=C\COC(=O)COc1ccc(Cl)cc1
inactive: [16] 94 % of control | [17] 96 % of control | [18] 107 % of control

O=C(OC1COC(Br)C(OC(=O)c2ccc([N+](=O)[O-])cc2)C1OC(=O)c1ccc([N+](=O)[O-])cc1)c1ccc([N+](=O)[O-])cc1 (configuration not stated)
inactive: [1] 98 % of control | [2] 96 % of control | dose: 400.0 mg/kg/injection, schedule: Q01DX001 (ip), vehicle: saline 91 % of control

C=CCNC(=S)Nc1cccc(OC(=O)NC2CCCCC2)c1
inactive: [7] 103 % of control | [8] 105 % of control | [9] 97 % of control
